Experimental data: patent US20250368662A1, “INHIBITORS OF INDOLEAMINE 2,3-DIOXYGENASE 1 (IDO1) AND TRYPTOPHAN 2,3-DIOXYGENASE (TDO) AND METHODS OF USING SAME” (University of South Carolina, priority 2024, published 2025)

Tested on: EO771 cells
Assay: Mouse model of breast cancer (EO771 cells in mammary fat pads)
Format: in vivo
Settings: female C57Bl/6 mice, i.p. 10 mg/kg every other day for 3 weeks
Description: In a mouse model of breast cancer, 8-week-old female C57Bl/6 mice were inoculated with EO771 cells in the 4th pair of mammary fat pads. […] Mice were sacrificed 24 days after cell inoculation.

weights of the heart, liver, lungs, kidney, brain, and lymph nodes: did not affect
Structure (SMILES): O=C(NCCCCC1CN2C(c3ccc4ccccc4c3)=CSC2=N1)Nc1ccccc1 (centres unmarked) [USCYL01]
body weight: did not affect
